≈ marks a conversion by molar mass, not a printed value. Where “and” joins values, the source holds several entries; their conditions need not be identical. Identical values can stand only once. Like-named read-outs stand apart in the source and are kept apart here.
What was measured:
[1] = system: B. subtilis / cytotoxicity EC50; assay: Selectivity index (SI) using B. subtilis MICs
Description: Additionally, the antimicrobial compounds were analyzed for cytotoxicity. […] We utilized the standard MTT assay (Promega CellTiter 96) and GraphPad Prism 7 software to determine EC50 values for each analogue. Briefly, 20,000 HepG2 cells in 200 μl of the ATCC recommended media were seeded in each well of a 96-well plate with a moisture barrier created in the outermost wells. The cells were allowed to attach overnight at 37° C., and then observed under phase contrast microscopy for proper morphological characteristics. If cells appeared healthy and attached, test compounds were added in 7 concentrations from […] (n=3) from freshly prepared DMSO stock plates. […] Once incubations were complete, the spectrophotometric absorbance of the samples was measured at a wavelength of 595 nm. […] For the HepaRG assay, NoSpin HepaRG™ cells (Lonza, cat #NSHPRG) were thawed and plated with 20,000 cells per well. They were allowed to attach for 4 h (optimal DME profile per Lonza's testing) before dosing following the identical protocol as above.

Neisseria gonorrhoeae = assay: microbe, parasite or virus in culture; assay type: cell-based
[2] = Toxicity study in mice, body weight over 7 days; assay type: in vivo, Balb/c mice
Excerpt: The vehicle is 40% PEG300 solution in 0.9% NaCl. […] Thus, the compounds are useful for in vivo antimicrobial administration.

[3] = ATCC49226, read-out: Neisseria gonorrhoeae ATCC 49226 MIC, strain ATCC 49226
[4] = read-out: Neisseria gonorrhoeae WHO 901 MIC, strain WHO 901
[5] = read-out: Neisseria gonorrhoeae WHO 914 MIC, strain WHO 914

## Fc1ccccc1Sc1c[nH]c2ccc(C(F)(F)F)cc12 [Compound 177D, 3-((2-fluorophenyl)thio)-5-(trifluoromethyl)-1H-indole]
[1]
  SI (selectivity index): 17.4

## Fc1ccc2[nH]cc(Sc3ccccc3Br)c2c1 [Compound 177E, 3-((2-bromophenyl)thio)-5-fluoro-1H-indole]
[1]
  SI (selectivity index): 20.3

## CCc1ccccc1Sc1c(CO)[nH]c2ccc(C(F)(F)F)cc12 [Compound 177I, (3-((2-ethylphenyl)thio)-5-(trifluoromethyl)-1H-indol-2-yl)methanol]
[1]
  SI (selectivity index): 10.0

## Brc1ccc(Oc2c[nH]c3ccccc23)cc1 [3-(4-bromophenoxy)-1H-indole]
Neisseria gonorrhoeae; [3]
  MIC: > 8 µg/mL
Neisseria gonorrhoeae; [4]
  MIC: 4 µg/mL (≈ 13.9 µM)
Neisseria gonorrhoeae; [5]
  MIC: > 8 µg/mL

## Brc1ccc(Oc2c[nH]c3ccc(Br)cc23)cc1 [5-bromo-3-(4-bromophenoxy)-1H-indole]
Neisseria gonorrhoeae; [3]
  MIC: 4 µg/mL (≈ 10.9 µM)
Neisseria gonorrhoeae; [4]
  MIC: 2 µg/mL (≈ 5.45 µM)
Neisseria gonorrhoeae; [5]
  MIC: 4 µg/mL (≈ 10.9 µM)

## Cc1ccccc1Oc1c[nH]c2ccc(F)cc12
Neisseria gonorrhoeae; [3]
  MIC: 8 µg/mL (≈ 33.2 µM)
Neisseria gonorrhoeae; [4]
  MIC: 4 µg/mL (≈ 16.6 µM)
Neisseria gonorrhoeae; [5]
  MIC: 8 µg/mL (≈ 33.2 µM)

## Cc1cccc(Cc2c[nH]c3ccc(F)cc23)c1
Neisseria gonorrhoeae; [3]
  MIC: 8 µg/mL (≈ 33.4 µM)
Neisseria gonorrhoeae; [4]
  MIC: 8 µg/mL (≈ 33.4 µM)
Neisseria gonorrhoeae; [5]
  MIC: > 8 µg/mL

## Fc1ccccc1Sc1c[nH]c2ccc(Br)cc12 [Compound 174AU, 5-bromo-3-((2-fluorophenyl)thio)-1H-indole]
[2]; 6-week-old Balb/c mice, vehicle 40% PEG300 in 0.9% NaCl
  toxicity in mice (body weight over 7 days): did not have significant toxicity
[2]; IP 0.1 mg/kg, Day 0, individual animals, 0.1 mg/kg
  Animal body weight: 0.026 kg and 0.023 kg and 0.024 kg
[2]; IP 0.1 mg/kg, Day 1, individual animals, 0.1 mg/kg
  Animal body weight: 0.024 kg and 0.022 kg and 0.023 kg
[2]; IP 0.1 mg/kg, Day 2, individual animals, 0.1 mg/kg
  Animal body weight: 0.025 kg and 0.022 kg and 0.023 kg
[2]; IP 0.1 mg/kg, Day 3, individual animals, 0.1 mg/kg
  Animal body weight: 0.025 kg and 0.022 kg and 0.023 kg
[2]; IP 0.1 mg/kg, Day 4, individual animals, 0.1 mg/kg
  Animal body weight: 0.025 kg and 0.022 kg and 0.023 kg
[2]; IP 0.1 mg/kg, Day 5, individual animals, 0.1 mg/kg
  Animal body weight: 0.025 kg and 0.023 kg and 0.024 kg
[2]; IP 0.1 mg/kg, Day 6, individual animals, 0.1 mg/kg
  Animal body weight: 0.025 kg and 0.022 kg and 0.023 kg
[2]; IP 0.1 mg/kg, Day 7, individual animals, 0.1 mg/kg
  Animal body weight: 0.024 kg and 0.022 kg and 0.023 kg
[2]; IP 1 mg/kg, Day 0, individual animals, 1 mg/kg
  Animal body weight: 0.026 kg and 0.022 kg and 0.025 kg
[2]; IP 1 mg/kg, Day 1, individual animals, 1 mg/kg
  Animal body weight: 0.025 kg (2×) and 0.022 kg
[2]; IP 1 mg/kg, Day 2, individual animals, 1 mg/kg
  Animal body weight: 0.026 kg and 0.022 kg and 0.025 kg
[2]; IP 1 mg/kg, Day 3, individual animals, 1 mg/kg
  Animal body weight: 0.026 kg and 0.022 kg and 0.025 kg
[2]; IP 1 mg/kg, Day 4, individual animals, 1 mg/kg
  Animal body weight: 0.026 kg and 0.023 kg and 0.025 kg
[2]; IP 1 mg/kg, Day 5, individual animals, 1 mg/kg
  Animal body weight: 0.026 kg and 0.023 kg and 0.025 kg
[2]; IP 1 mg/kg, Day 6, individual animals, 1 mg/kg
  Animal body weight: 0.025 kg (2×) and 0.023 kg
[2]; IP 1 mg/kg, Day 7, individual animals, 1 mg/kg
  Animal body weight: 0.026 kg and 0.024 kg and 0.025 kg
[2]; IP 10 mg/kg, Day 0, individual animals, 10 mg/kg
  Animal body weight: 0.024 kg (2×) and 0.025 kg
[2]; IP 10 mg/kg, Day 1, individual animals, 10 mg/kg
  Animal body weight: 0.023 kg (2×) and 0.024 kg
[2]; IP 10 mg/kg, Day 2, individual animals, 10 mg/kg
  Animal body weight: 0.023 kg (2×) and 0.025 kg
[2]; IP 10 mg/kg, Day 3, individual animals, 10 mg/kg
  Animal body weight: 0.024 kg and 0.023 kg and 0.025 kg
[2]; IP 10 mg/kg, Day 4, individual animals, 10 mg/kg
  Animal body weight: 0.023 kg (2×) and 0.025 kg
[2]; IP 10 mg/kg, Day 5, individual animals, 10 mg/kg
  Animal body weight: 0.023 kg (2×) and 0.026 kg
[2]; IP 10 mg/kg, Day 6, individual animals, 10 mg/kg
  Animal body weight: 0.022 kg and 0.023 kg and 0.026 kg
[2]; IP 10 mg/kg, Day 7, individual animals, 10 mg/kg
  Animal body weight: 0.022 kg and 0.023 kg and 0.026 kg

## Fc1ccc2[nH]cc(Cc3ccccc3F)c2c1
Neisseria gonorrhoeae; [3]
  MIC: 8 µg/mL (≈ 32.9 µM)
Neisseria gonorrhoeae; [4]
  MIC: 8 µg/mL (≈ 32.9 µM)
Neisseria gonorrhoeae; [5]
  MIC: > 8 µg/mL

## c1ccc(Oc2c[nH]c3ccccc23)cc1 [3-phenoxy-1H-indole]
Neisseria gonorrhoeae; [3]
  MIC: > 8 µg/mL
Neisseria gonorrhoeae; [4]
  MIC: > 8 µg/mL
Neisseria gonorrhoeae; [5]
  MIC: > 8 µg/mL

## CC(c1ccccc1)c1c[nH]c2ccc(F)cc12 (stereo not shown)
Neisseria gonorrhoeae; [3]
  MIC: 8 µg/mL (≈ 33.4 µM)
Neisseria gonorrhoeae; [4]
  MIC: 4 µg/mL (≈ 16.7 µM)
Neisseria gonorrhoeae; [5]
  MIC: 8 µg/mL (≈ 33.4 µM)

— patent publication US20250382269A1 (CFD Research Corporation, priority 2019, published 2025)
